This test has as its target T1, cis-aconitate decarboxylase (CAD) (Aspergillus terreus, UniProt Q0C8L3).
T1 construct: Partial Purification of CAD from Itaconic Acid Producing A. Terreus; endogenous in cells; host or cells: Aspergillus terreus NRRL 1960 mycelium (cell free extract)
Kind of test: Effect of the addition of stabilizing compounds on the CAD activity. It counts as biochemical, Aspergillus terreus NRRL 1960. The note with it: * final concentration of 20 mM, PEG 20% w/v; for CAD activity after 48 h: stabilizer added to buffer; for Initial CAD Activity: stabilizer added to buffer of A. terreus cell free extract. The protocol: The enzyme activity determination was essentially as described (Bentley et al., 1957 supra; Dwiarti et al., 2002, J Biosci Bioeng 94(1):29-33). 800 μl of 0.2 M sodium phosphate pH 6.5 was mixed with 100 μl 10 mM cis-aconitic acid and 100 μl protein solution and incubated for 20 till 60 min at 37° C. The reaction was stopped by the addition of 100 μl 12 M HCl. The amount of itaconic acid formed was determined by isocratic chromatography in 4 mM sulphuric acid on Bio-Rad Aminex HPX-87H column in a Dionex HPLC equipped with an UV detector at 215 nm. Calibration of the signal was accomplished by running a known amount of itaconic acid in a separate run. One unit (U) is one μmol of itaconic acid formed per minute. The same chromatographic assay was used to monitor the amount of itaconic acid formed in the broth of shake flasks or fermenter cultures as being indicative for cis-aconitate decarboxylase (CAD) induction. The protein concentration was measured according to Bradford with the Bio-Rad protein assay (Bradford, Anal Biochem 1976; 72:248-54).
Approximately 1 g of frozen mycelium was transferred to a Teflon vessel and grinded with a metal ball for one minute using a dismembrator (Braun-Melsungen, Germany). Multiple batches of the powdered mycelium were resuspended in 10 ml 0.2 M sodium phosphate buffer pH 6.5 containing 1 mM DTT and 1 mM EDTA and allowed to hydrate at 0° C. for thirty minutes while mixing and centrifuged at 15000 g for 30 minutes at 4° C. to obtain the CFE.
In the purification of CAD the inherent instability of the protein was noticed. […] To overcome this problem we adapted the purification method by the addition of potential stabilizers to the buffers (Table 2).

Setting [1] is: after 48 h relative to initial CAD activity.

By remaining activity is commonly meant the activity still measured, relative to the control. A high value points to a small loss of activity.

T1 sequence (Q0C8L3 whole entry): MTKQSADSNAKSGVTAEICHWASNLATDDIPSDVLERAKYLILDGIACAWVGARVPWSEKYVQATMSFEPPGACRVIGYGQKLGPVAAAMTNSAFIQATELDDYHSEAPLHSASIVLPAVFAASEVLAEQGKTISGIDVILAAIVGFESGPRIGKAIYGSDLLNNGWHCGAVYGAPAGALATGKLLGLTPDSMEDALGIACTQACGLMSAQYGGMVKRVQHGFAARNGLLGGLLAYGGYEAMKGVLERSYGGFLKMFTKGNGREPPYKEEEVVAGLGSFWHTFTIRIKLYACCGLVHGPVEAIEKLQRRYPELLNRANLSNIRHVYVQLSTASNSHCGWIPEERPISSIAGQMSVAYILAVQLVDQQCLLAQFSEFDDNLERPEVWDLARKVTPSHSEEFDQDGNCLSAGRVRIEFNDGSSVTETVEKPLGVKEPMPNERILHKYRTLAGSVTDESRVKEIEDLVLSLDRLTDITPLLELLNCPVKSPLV

As for `O=C1O[C@H]([C@@H](O)CO)C(O)=C1O` [Ascorbic Acid], the “CAD activity after 48 h” value was determined as 0.19 U/mL and the “Initial CAD Activity” value worked out at 1.36 U/mL. Further, under setting [1], the remaining activity at 20000 µM is 14%.

As for `O=C(O)c1ccccc1` [Benzoate], the “CAD activity after 48 h” value stood at 0.43 U/mL and the “Initial CAD Activity” value came out at 1.36 U/mL. The compound further displayed a Remaining activity under setting [1] of 32%.

As to `O=S([O-])[O-].[Na+].[Na+]` [Na2SO3], the “CAD activity after 48 h” value is recorded as 1.30 U/mL and the “Initial CAD Activity” value amounted to 1.48 U/mL. The Remaining activity under setting [1] amounted to 88%.

The record behind these values is patent US20110099670A1, “[…] CODING FOR CIS-ACONITIC DECARBOXYLASE AND USE THEREOF” (priority 2008, published 2011).
